Molecular target: T1, ITK (Jurkat or Molt4 cells) (Homo sapiens, UniProt Q08881)
T1 construct: either human Jurkat (Clone E6-1 ATCC TIB-152) or Motl4 (ATCC CRL-1552), were plated; endogenous in cells; host or cells: Jurkat Clone E6-1 (ATCC TIB-152) or Molt4 (ATCC CRL-1552)
T1 sequence (Q08881 1-620): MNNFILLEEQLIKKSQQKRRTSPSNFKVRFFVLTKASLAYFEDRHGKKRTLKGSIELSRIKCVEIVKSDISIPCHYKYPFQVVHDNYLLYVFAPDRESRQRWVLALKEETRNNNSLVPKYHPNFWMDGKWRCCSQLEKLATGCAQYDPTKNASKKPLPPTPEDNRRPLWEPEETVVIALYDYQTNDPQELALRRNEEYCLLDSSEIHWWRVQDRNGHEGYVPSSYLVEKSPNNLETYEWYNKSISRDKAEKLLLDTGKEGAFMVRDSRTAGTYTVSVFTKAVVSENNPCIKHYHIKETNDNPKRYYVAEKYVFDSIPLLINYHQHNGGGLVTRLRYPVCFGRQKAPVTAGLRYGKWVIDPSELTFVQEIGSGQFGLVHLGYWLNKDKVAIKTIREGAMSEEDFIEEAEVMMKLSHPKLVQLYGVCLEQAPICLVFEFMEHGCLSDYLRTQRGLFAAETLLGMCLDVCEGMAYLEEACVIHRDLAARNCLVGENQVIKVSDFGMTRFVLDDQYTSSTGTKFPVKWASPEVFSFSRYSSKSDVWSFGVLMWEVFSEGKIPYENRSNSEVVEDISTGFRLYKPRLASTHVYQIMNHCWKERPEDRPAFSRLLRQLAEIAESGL
Experiment: ITK Degradation MSD (Meso Scale Discovery) Assay
Type: cell-based
Conditions: 4 or 6 hrs incubation; for DC50: best fit IC50 used as DC50
Method: Compound dilution series (7-point, 5-fold dilutions in DMSO, rows B—H with replicate in Column 1/2, 3/4, 5/6, 7, and 8 at 2000× the final required concentrations were prepared in 96-well plate (Falcon, cat. no. 353077). Row A, Column 1-8 were control DMSO. The 2000× solutions ranged from 2 mM to 128 nM (final assay concentration range 1 μM to […]). The 2000×solutions were added to cells in 10 μL volume, for a final DMSO concentration of 0.5% and final assay compound concentration of 1×. For the cells, either human Jurkat (Clone E6-1 ATCC TIB-152) or Motl4 (ATCC CRL-1552), were plated at 1×10^6 cells/mL, 100 μL/well ([…]) in complete RPMI (10% FBS, 1% L-glutamine). The cells were incubated with compounds 26-29 for 4 or 6 hrs at 32° C./6% CO2.
Following incubation, plates were centrifuged at 1200 rpm for 5 min. Supernatant was removed and 50 μL of cell lysis buffer (MSD Tris lysis buffer (R60TX), complete Mini EDTA-free protease inhibitor (Sigma 11836170001), Protease Inhibitor Cocktail (Sigma, P2714), Phosphatase Inhibitor Cocktail 2 and 3 (Sigma, P5726 and P0044), Benzonase (Sigma, E1014)) was added to each well. Plate was sealed and shook at 4° C. for 30 min. Plate was centrifuged and 45 μL was removed for plate assay.
Assay plate preparation: Meso Scale Discovery (MSD) multi-array sm spot 96-well plates (Goat anti-Rabbit L^45-RA), were blocked with 3% BSA blocking buffer (3% Bovine Serum Albumin (Sigma A3059)+TBS 0.2% Tween-20) for one hour with gentle rocking at room temperature. Plate was then washed with 200 μL of 1×TBST (TBS 0.2% Tween-20) three times. After the last wash, all liquid was removed and 50 μL per well of capture antibody (abcam ITK Y402-ab32507) was added to plate at a 1:1000 dilution in blocking buffer (see above). Plate was sealed and rocked at room temperature for 2 hrs. Plate was then washed three times with 200 μL of 1×TBST. After the last wash, all liquid was removed and 45 μL of cell lysate (from above) was added to plate. Plate was sealed and rocked overnight at 4° C. The next day, cell lysates were removed, and assay plate was washed three times with 200 μL of 1×TBST. After the last wash, liquid was removed and detection antibody (CST ITK (2F12) #2380) was added at 50 μL per well at a dilution of 1:1000 in blocking buffer. Plate was sealed and rocked at room temperature for 2 hrs. Plate was washed three times with 200 μL of 1×TBST. After the last wash, all liquid was removed, MSD […] sulfo tag (R32AC-1) was diluted to 1:1000 in blocking buffer. 50 μL was added to each well on the plate. Plate was sealed and incubated at room temperature for one hour. Plate was washed three times with 200 μL of 1×TBST. After last wash, all liquid was removed and 150 μL of 1×MSD Read Buffer T (R92PC) was then added to each well for ECL read out.
For reading ECL signal, plate was read on a Meso Scale Discovery (MSD) MESO Sector S 600 plate reader. Percent ITK was then calculated as described below.
Percent ITK remaining per sample was calculated as follows: […]
Using Graphpad Prism, % ITK remaining values were plotted as a function of compound concentration. To determine DC50 and Dmax values, resulting curves were fit to the Prism curve-fitting equation “log(inhibitor) vs response−Variable slope (four parameters)” (reported best fit value IC50 used as DC50).

Row | SMILES | Dmax [%] | DC50 [nM]
1 | CN[C@@H](C)C(=O)N[C@H](C(=O)N1C[C@@H](NC(=O)CCOCCC(=O)N2CC([C@@H](c3ccccc3)n3cc(NC(=O)c4n[nH]c5c4C[C@@H]4C(F)(F)[C@]4(C)C5)cn3)C2)C[C@H]1C(=O)N[C@@H]1CCCc2ccccc21)C1CCCCC1 [Compound 1] | – | 251
2 | CN[C@@H](C)C(=O)N[C@H](C(=O)N1CCC[C@H]1c1nc(C(=O)c2cccc(OCCOCCOCCOCCOCCC(=O)N3CC([C@@H](c4ccccc4)n4cc(NC(=O)c5n[nH]c6c5C[C@@H]5C(F)(F)[C@]5(C)C6)cn4)C3)c2)cs1)C1CCCCC1 [Compound 6, (4aS,5aR)—N-(1-((S)-(1-(1-(3-(2-((S)-1-((S)-2-cyclohexyl-2-((S)-2-(methylamino)propanamido)acetyl)pyrrolidin-2-yl)thiazole-4-carbonyl)phenoxy)-3,6,9,12-tetraoxapentadecan-15-oyl)azetidin-3-yl)(phenyl)methyl)-1H-pyrazol-4-yl)-5,5-difluoro-5a-methyl-1,4,4a,5,5a,6-hexahydrocyclopropa[f]indazole-3-carboxamide] | – | 14
3 | CN[C@@H](C)C(=O)N[C@H](C(=O)N1CCC[C@H]1c1nc(C(=O)c2cccc(OCCCCN3CC([C@@H](c4ccccc4)n4cc(NC(=O)c5n[nH]c6c5C[C@@H]5C(F)(F)[C@]5(C)C6)cn4)C3)c2)cs1)C1CCCCC1 [Compound 7, (4aS,5aR)—N-(1-((S)-(1-(4-(3-(2-((S)-1-((S)-2-cyclohexyl-2-((S)-2-(methylamino)propanamido)acetyl)pyrrolidin-2-yl)thiazole-4-carbonyl)phenoxy)butyl)azetidin-3-yl)(phenyl)methyl)-1H-pyrazol-4-yl)-5,5-difluoro-5a-methyl-1,4,4a,5,5a,6-hexahydrocyclopropa[f]indazole-3-carboxamide] | – | 4.77
4 | CN[C@@H](C)C(=O)N[C@H](C(=O)N1CCC[C@H]1c1nc(C(=O)c2cccc(OCCCCCN3CC([C@@H](c4ccccc4)n4cc(NC(=O)c5n[nH]c6c5C[C@@H]5C(F)(F)[C@]5(C)C6)cn4)C3)c2)cs1)C1CCCCC1 [Compound 10, (4aS,5aR)—N-(1-((S)-(1-(5-(3-(2-((S)-1-((S)-2-cyclohexyl-2-((S)-2-(methylamino)propanamido)acetyl)pyrrolidin-2-yl)thiazole-4-carbonyl)phenoxy)pentyl)azetidin-3-yl)(phenyl)methyl)-1H-pyrazol-4-yl)-5,5-difluoro-5a-methyl-1,4,4a,5,5a,6-hexahydrocyclopropa[f]indazole-3-carboxamide] | – | 22.2
5 | CN[C@@H](C)C(=O)N[C@H](C(=O)N1CCC[C@H]1c1nc(C(=O)c2cccc(OCCOCCN3CC([C@@H](c4ccccc4)n4cc(NC(=O)c5n[nH]c6c5C[C@@H]5C(F)(F)[C@]5(C)C6)cn4)C3)c2)cs1)C1CCCCC1 [Compound 11, (4aS,5aR)—N-(1-((S)-(1-(2-(2-(3-(2-((S)-1-((S)-2-cyclohexyl-2-((S)-2-(methylamino)propanamido)acetyl)pyrrolidin-2-yl)thiazole-4-carbonyl)phenoxy)ethoxy)ethyl)azetidin-3-yl)(phenyl)methyl)-1H-pyrazol-4-yl)-5,5-difluoro-5a-methyl-1,4,4a,5,5a,6-hexahydrocyclopropa[f]indazole-3-carboxamide] | – | 10.7

Second part, the compound after the results:

Row | Dmax [%] | DC50 [nM] | SMILES
6 | 88.8 | 30.1 | Cc1ncsc1-c1ccc([C@H](C)NC(=O)[C@@H]2C[C@@H](O)CN2C(=O)[C@@H](NC(=O)c2ccc(N3CCC(C(=O)N4CC([C@@H](c5ccccc5)n5cc(NC(=O)c6n[nH]c7c6C[C@@H]6C(F)(F)[C@]6(C)C7)cn5)C4)CC3)cn2)C(C)(C)C)cc1 [Compound 31, (4aS,5aR)-5,5-difluoro-N-(1-((S)-(1-(1-(6-(((S)-1-((2S,4R)-4-hydroxy-2-(((S)-1-(4-(4-methylthiazol-5-yl)phenyl)ethyl)carbamoyl)pyrrolidin-1-yl)-3,3-dimethyl-1-oxobutan-2-yl)carbamoyl)pyridin-3-yl)piperidine-4-carbonyl)azetidin-3-yl)(phenyl)methyl)-1H-pyrazol-4-yl)-5a-methyl-1,4,4a,5,5a,6-hexahydrocyclopropa[f]indazole-3-carboxamide]
7 | 95.9 | 2.6 | Cc1ncsc1-c1ccc(CNC(=O)[C@@H]2C[C@@H](O)CN2C(=O)[C@@H](NC(=O)C2(F)CC2)C(C)(C)C)c(OCCOCCOCCOCCC(=O)N2CC([C@@H](c3ccccc3)n3cc(NC(=O)c4n[nH]c5c4C[C@@H]4C(F)(F)[C@]4(C)C5)cn3)C2)c1 [Compound 19, (4aS,5aR)-5,5-difluoro-N-(1-((S)-(1-(3-(2-(2-(2-(2-(((2S,4R)-1-((S)-2-(1-fluorocyclopropane-1-carboxamido)-3,3-dimethylbutanoyl)-4-hydroxypyrrolidine-2-carboxamido)methyl)-5-(4-methylthiazol-5-yl)phenoxy)ethoxy)ethoxy)ethoxy)propanoyl)azetidin-3-yl)(phenyl)methyl)-1H-pyrazol-4-yl)-5a-methyl-1,4,4a,5,5a,6-hexahydrocyclopropa[f]indazole-3-carboxamide]
8 | 94 | 10.8 | Cc1ncsc1-c1ccc(CNC(=O)[C@@H]2C[C@@H](O)CN2C(=O)[C@@H](NC(=O)C2(F)CC2)C(C)(C)C)c(OCCCCC(=O)N2CC([C@@H](c3ccccc3)n3cc(NC(=O)c4n[nH]c5c4C[C@@H]4C(F)(F)[C@]4(C)C5)cn3)C2)c1 [Compound 34, (4aS,5aR)-5,5-difluoro-N-(1-((S)-(1-(5-(2-(((2S,4R)-1-((S)-2-(1-fluorocyclopropane-1-carboxamido)-3,3-dimethylbutanoyl)-4-hydroxypyrrolidine-2-carboxamido)methyl)-5-(4-methylthiazol-5-yl)phenoxy)pentanoyl)azetidin-3-yl)(phenyl)methyl)-1H-pyrazol-4-yl)-5a-methyl-1,4,4a,5,5a,6-hexahydrocyclopropa[f]indazole-3-carboxamide]
9 | – | 479 | Cc1ncsc1-c1ccc(CNC(=O)[C@@H]2C[C@@H](O)CN2C(=O)[C@@H](NC(=O)CCOCCC(=O)N2CC([C@@H](c3ccccc3)n3cc(NC(=O)c4n[nH]c5c4C[C@@H]4C(F)(F)[C@]4(C)C5)cn3)C2)C(C)(C)C)cc1 [Compound 16, (4aS,5aR)-5,5-difluoro-N-(1-((S)-(1-(3-(3-(((S)-1-((2S,4R)-4-hydroxy-2-((4-(4-methylthiazol-5-yl)benzyl)carbamoyl)pyrrolidin-1-yl)-3,3-dimethyl-1-oxobutan-2-yl)amino)-3-oxopropoxy)propanoyl)azetidin-3-yl)(phenyl)methyl)-1H-pyrazol-4-yl)-5a-methyl-1,4,4a,5,5a,6-hexahydrocyclopropafindazole-3-carboxamide]

Reference: US20250002489A1, “BIFUNCTIONAL COMPOUNDS FOR DEGRADING ITK VIA UBIQUITIN PROTEOSOME PATHWAY” (NURIX THERAPEUTICS, INC., priority 2021, published 2025)
